In ChEMBL document CHEMBL1151778, “Synthesis of macrocyclic trypanosomal cysteine protease inhibitors” (Bioorg Med Chem Lett, 2008):

What was measured:
[1] = biological target: Rhodesain (Trypanosoma brucei rhodesiense, UniProt Q95PM0); test: Inhibition of Trypanosoma brucei rhodesiense recombinant rhodesain by fluorescence technique
[2] = biological target: Cruzipain (Trypanosoma cruzi, UniProt P25779); test: Inhibition of Trypanosoma cruzi recombinant cruzain by fluorescence technique
Chain of Cruzipain (P25779 whole entry): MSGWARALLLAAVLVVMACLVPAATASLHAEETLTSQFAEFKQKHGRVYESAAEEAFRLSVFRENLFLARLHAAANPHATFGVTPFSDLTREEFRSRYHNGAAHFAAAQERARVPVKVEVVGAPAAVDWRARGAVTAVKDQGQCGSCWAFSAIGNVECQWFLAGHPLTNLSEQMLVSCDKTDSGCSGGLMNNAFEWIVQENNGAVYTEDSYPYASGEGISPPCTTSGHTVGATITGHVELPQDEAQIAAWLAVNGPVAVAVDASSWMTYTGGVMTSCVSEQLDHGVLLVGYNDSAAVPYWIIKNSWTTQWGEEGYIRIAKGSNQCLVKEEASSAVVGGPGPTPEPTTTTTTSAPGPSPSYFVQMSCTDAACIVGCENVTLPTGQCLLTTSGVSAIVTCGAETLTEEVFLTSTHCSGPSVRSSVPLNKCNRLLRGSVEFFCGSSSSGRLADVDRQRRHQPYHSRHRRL

Chain of Rhodesain (Q95PM0 whole entry): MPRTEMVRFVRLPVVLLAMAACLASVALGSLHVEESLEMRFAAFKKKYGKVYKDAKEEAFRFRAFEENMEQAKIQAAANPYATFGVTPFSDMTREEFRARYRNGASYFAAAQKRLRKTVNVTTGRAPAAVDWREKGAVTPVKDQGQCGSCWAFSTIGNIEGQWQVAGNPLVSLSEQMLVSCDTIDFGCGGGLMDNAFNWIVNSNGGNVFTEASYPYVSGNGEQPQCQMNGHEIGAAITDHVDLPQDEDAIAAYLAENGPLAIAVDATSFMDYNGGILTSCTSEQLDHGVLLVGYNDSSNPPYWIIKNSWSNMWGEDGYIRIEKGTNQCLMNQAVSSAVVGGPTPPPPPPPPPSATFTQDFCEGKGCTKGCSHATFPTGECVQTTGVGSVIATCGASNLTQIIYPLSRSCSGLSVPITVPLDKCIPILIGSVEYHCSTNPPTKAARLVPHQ

SMILES | IC50 [1] [µM] | IC50 [2] [µM]
CC(C)C[C@@H]1N[C@@H](C(=O)Nc2ccccc2)CCCCC[C@@H](/C=C/S(=O)(=O)c2ccccc2)NC1=O | 6 | 2
CC(C)C[C@@H]1N[C@@H](C(=O)Nc2ccccc2)CCCC[C@@H](/C=C/S(=O)(=O)c2ccccc2)NC1=O | 10 | > 10
